Data on one compound can be found in PMC6383986, “Fragment-Based Covalent Ligand Screening Enables Rapid Discovery of Inhibitors for the RBR E3 Ubiquitin Ligase HOIP” (Journal of the American Chemical Society, 2019).

The subject of data set [1] is untransfected HEK293T cells. Description: CellTiter-Glo Luminescent cell viability assay, untransfected cells. The data set is classed as cell-based. Particulars: 17 h. The method, then: Separately, untransfected HEK293T cells were incubated with compounds (1), (11a) and (17) for 17 h, and the cell viability determined using the CellTiter-Glo® Luminescent Cell Viability Assay as described above. Average data from three independent experiments each done in triplicate were plotted as percentage cell viability normalized to DMSO control with GraFit (v.7) against different compound concentrations and fitted using the IC50-4 parameter logistic (Supplementary […]
Supplementary Figure S14. A-D) Uncropped concentration-response graphs (A and D from Figure 6D) and Western blots from the NF-κB reporter and cell viability assays. HEK293T cells transfected with His6-tagged HOIP, HOIL-1L and SHARPIN (H/H/S) were treated with compounds (11a) and (17) for 17 h and the relative NF-κB activity and cell viability was plotted against compound concentration. E) Cell viability of untransfected HEK293T cells treated with compound (1), (11a) and (17) for 17 h. The observed cell toxicity for compound (1) was in line that previously […]
(1 picture or pasted object on this page, not shown here)

Data set [2] has as its system E1, UbcH5c, UbcH7, HOIL-1L, RNF144A, HHARI, TRIAD3A RBR domains, NEDD4L, E6AP, OTULIN, CYLD-1. Description: LC-MS-based enzyme counter screen. Particulars: 2-fold excess, positive control. Type of data set: binding. As for the experimental part: 0.1% formic acid in water. The samples were analyzed on a Q Exactive MS (Thermo Fisher) coupled to an Easy-nLC chromatographic system (Thermo Fisher) with a nano ESI source (Thermo Fisher). Each sample (2 µL) was injected and trapped on a C18 Acclaim pepMap 100 enrichment column (75 µm id × 2 cm, 3 µm nanoviper, Thermo Fisher). The samples were transferred to a C18 Acclaim PepMap RSLC analytical column (75 µm id × 15 cm, 2 µm, Thermo Fisher) at 300 nL/min. Mobile phase A (0.1% Formic acid in water, v/v); mobile phase B (0.1% […]
min (70-95% B), 56-61 min (95% B). The nanospray ionisation source was operated in the positive mode with spray voltage set at 2 kV, and heated capillary at 250 °C. The Q Exactive was operated in the data dependent mode and the top 15 most intense ions were subjected to HCD fragmentation with normalised collision energy set at 26%. The MS1 scans were performed at a resolution of 70 000 from 400-1600 m/z, automatic gain control (AGC) value 3 e6, maximum injection time 100 ms. […]
Compounds (1) and (5) were screened against E1, the E2s UbcH5c and UbcH7, the RBR domains of the E3 ligases HOIP, HOIL-1L, RNF144A, HHARI and TRIAD3A, the HECT E3 ligases NEDD4L and E6AP, and the DUBs OTULIN and CYLD-1. […] The samples were analyzed after 0.5 and 24 h incubation. […]

On to `Cc1ccc(S(=O)(=O)/C=C/C#N)cc1` [Compound 1, BAY 11–7082, reference compound], for which the cell viability entry in data set [1] is listed as “cell toxicity”. The “labeling of counter screen proteins” value in data set [2] is “rapid and extensive labeling for most proteins”.
